Source: patent US4470986A, “Certain imidazo (1,5-A) pyridine aliphatic carboxylic acid derivatives and their use as selective thromboxane inhibitors” (Ciba-Geigy Corporation, priority 1982, dated 1984)

How the values were obtained:
thromboxane synthetase = target: T1, thromboxane synthetase (Homo sapiens, UniProt P24557); experiment: in vitro inhibition of thromboxane synthetase (TxB2/PGF2 α+β ratio from 14C-arachidonic acid); type: biochemical; details: 30 minutes incubation
T1 construct: crude microsomal preparation of thromboxane synthetase from lysed human platelets; from tissue; host or cells: lysed human platelets, crude microsomal preparation
T1 sequence (P24557 1-533): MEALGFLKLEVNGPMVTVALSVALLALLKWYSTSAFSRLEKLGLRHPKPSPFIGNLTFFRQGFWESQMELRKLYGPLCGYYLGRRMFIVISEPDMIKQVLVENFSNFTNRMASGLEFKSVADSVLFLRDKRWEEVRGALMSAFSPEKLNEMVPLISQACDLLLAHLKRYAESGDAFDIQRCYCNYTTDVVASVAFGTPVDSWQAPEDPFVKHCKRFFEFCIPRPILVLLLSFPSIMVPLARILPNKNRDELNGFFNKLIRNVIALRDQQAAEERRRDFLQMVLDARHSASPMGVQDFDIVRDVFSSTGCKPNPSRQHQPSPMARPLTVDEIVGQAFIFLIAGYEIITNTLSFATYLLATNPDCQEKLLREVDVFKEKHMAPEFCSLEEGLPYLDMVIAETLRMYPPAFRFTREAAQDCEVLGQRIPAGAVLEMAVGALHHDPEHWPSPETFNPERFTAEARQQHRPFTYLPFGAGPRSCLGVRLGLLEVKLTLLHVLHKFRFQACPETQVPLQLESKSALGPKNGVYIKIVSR
Experimental: Res. Comm. 74, 1432 (1977); the testing procedure is as follows:
^14 C-Arachidonic acid is incubated with an enzyme preparation consisting of solubilized and partially purified prostaglandin cyclo-oxygenase from sheep seminal vesicles and a crude microsomal preparation of thromboxane synthetase from lysed human platelets. The test compound (dissolved in buffer, or if necessary, in a small amount of ethanol) is added to the incubation medium. At the end of the incubation period (30 minutes), Prostaglandin E2 (PGE2) is reduced to a mixture of Prostaglandin F2 α and F2 β [PGF2 (α+β)] by addition of sodium borohydride. The radioactive products and excess substrate are extracted into ethyl acetate; the extract is evaporated to dryness; the residue is dissolved in acetone, spotted on thin-layer plates and chromatographed in the solvent system toluene: acetone: glacial acetic acid (100 volumes: 100 volumes: 3 volumes). The radioactive zones are located; those corresponding to Thromboxane B2 (TxB2) and PGF2 α+β are transferred to liquid scintillation vials and counted. The ratio of counts for TxB2 /PGF2 α+β is calculated for each concentration of test compound and IC50 values are determined graphically as the concentration of test compound at which the ratio of TxB2 /PGF2 α+β is reduced to 50% of the control value.

thromboxane B2 = experiment: in vivo reduction of plasma thromboxane B2 in rats after ionophore A23187; details: rat, oral dose of 5 mg/Kg or lower; ionophore A23187 0.5 mg/kg i.v. two hours after dosing
Experimental: (§1) The inhibition of the synthesis and the reduction of plasma levels of thromboxane is determined in vivo or administration to rats in the following manner (as adapted from the procedures described by Tai et al. in Anal. Biochem. 87:343, 1978 and by Salmon in Prostaglandins 15:383, 1978):
(§2) Rats are dosed with vehicle or test drug and injected intravenously with ionophore A23187 (0.5 mg/kg) two hours later. Blood is collected for analysis 2 minutes after the ionophore injection. A single aliquot of each plasma sample is assayed for thromboxane B2 and another aliquot for 6-keto-PGF1 α (the stable metabolite of prostacyclin, by radioimmunoassay.

6-keto-PGF1 α = experiment: in vivo plasma level of 6-keto-PGF1 α (prostacyclin metabolite) in rats after ionophore A23187; details: rat; ionophore A23187 0.5 mg/kg i.v. two hours after dosing
Experimental: as §1, §2

Row | IC50 (thromboxane synthetase) [nM] | Structure (SMILES) | reduction of the plasma concentration of thromboxane B2 (thromboxane B2) | increase in the plasma level of the prostacyclin metabolite 6-keto-PGF1 α (6-keto-PGF1 α)
1 | ~10 | c1cc(CCCCc2nnn[nH]2)n2cncc2c1 [5-[4-(5-tetrazolyl)butyl]-imidazo[1,5-a]pyridine] | over 50% | significant increase
2 | ~300 | O=C(CCCCCc1cccc2cncn12)NO [5-[5-(hydroxycarbamoyl)pentyl]-imidazo[1,5-a]-pyridine] |  | 
3 | ~3 | O=C(O)CCCCCc1c(OCc2ccccc2)ccc2cncn12 [6-benzyloxy-5-(5-carboxypentyl)imidazo[1,5-a]pyridine] |  | 
